Test results from PubChem BioAssay AID2060500 (Molecular Pharmacology Branch, DTP, NCI, 2025).
Values joined by “and” are separate entries in the source; they are usually repeats but may differ in a detail not shown here. Equal values may be shown once.

Test system: 596521-263-R-J1-PDC complex spheroids, viability % of control
Assay: Anticancer human tumor 596521-263-R-J1-PDC patient-derived soft tissue sarcoma cell line growth inhibition [GQUAD]
Details: for viability, T/C: stronger effect = lower value
Description: DNA G-quadruplex Stabilizer Agents in Combinations in Complex Spheroids
A high-throughput screen of multi-cell type tumor spheroids was designed to identify active combinations of DNA G-quadruplex stabilizer agents and targeted small molecules. Complex spheroids include a stromal component modeled by human endothelial cells (HUVEC) and fibroblasts modeled by human mesenchymal stem cells (MSCs). The concentration ranges selected for each drug and investigational agent were based upon clinically achievable concentrations if the clinical Cmax of the agent was known.
Compounds. The drugs and investigational agents: pidnarulex (CX-5461; NSC782164), APTO-253 (NSC789042), BRACO-19 (NSC847499), peposertib (NSC802822), ceralasertib (NSC780249), elimusertib (NSC800525), camonsertib (NSC841442), AZD-1390 (NSC803789), olaparib (NSC753686), talazoparib (NSC767125), ART-558 (NSC835418), sotorasib (NSC818433), MRTX-1133 (NSC836407), SN-38 (NSC673596), topotecan (NSC609699), etoposide (NSC141540), doxorubicin (NSC123127), gemcitabine (NSC613327), 5-fluorouracil (NSC19893), paclitaxel (NSC125973), vemurafenib (NSC761431), panobinostat (NSC761190), R-306465 (JNJ-16241199; NSC773264), adavosertib (NSC754352), TP-3654 (NSC805149), carboplatin (NSC241240), KSQ-4279 (NSC840948), and staurosporine (NSC755774) were obtained from the National Cancer Institute (NCI) Developmental Therapeutics Program Chemical Repository (34). The FDA-approved anticancer drug set is available from the NCI Developmental Therapeutics Program. […] The stock solutions were prepared in dimethyl sulfoxide (DMSO, Sigma-Aldrich, St. Louis, MO, cat. D2650) at 800-fold the tested concentration and stored at -70 degrees C prior to their use. All drugs and investigational agents were tested over a range starting from a high concentration at or near the clinical Cmax and decreasing in half-log increments. If the clinical Cmax for an agent had not been determined, the highest concentration tested was 10 microM.
2.3 Cell Culture. All cells were maintained in an incubator at 37 degrees C and 5% CO2 with 95% humidity. The PDC lines were cultured according to standard operating procedures established by the NCI PDMR. All PDCs were thawed and cultured in Matrigel-coated flasks prepared with a working solution of 1X Ham's F-12 nutrient mix, without supplementation (Invitrogen, cat. 11765054), 100 U/mL penicillin-streptomycin (Invitrogen, cat. 15140122), and 2.5% Matrigel (Corning Inc., cat. 354248) for the first three passages. The 857933-349-R-J2-PDC line was cultured in 6C/Colon 1B media, which includes advanced DMEM/F-12 (Thermo Fisher Scientific, cat. 12634028), 10 mM HEPES (Thermo Fisher Scientific, cat. 15630080), 1X GlutaMAX supplement (Thermo Fisher Scientific, cat. 35050061), 0.1 mg/mL primocin (InvivoGen, cat. ant-pm-2), 10% defined fetal bovine serum, heat inactivated (HyClone Laboratories Inc., cat. SH30070.03HI), 50% L-WRN conditioned media (ATCC, cat. CRL-3276), 1.25 mM N-Acetyl-L-cysteine (Sigma-Aldrich, cat. A9165), 10 mM nicotinamide (Sigma-Aldrich, cat. N0636), 1X B-27 supplement (Thermo Fisher Scientific, cat. 17504044), 1X N-2 supplement (Thermo Fisher Scientific, cat. 17502048), 10 microM Y-27632 dihydrochloride (Tocris Bioscience, cat. 1254), and 50 ng/mL human EGF recombinant protein (Thermo Fisher Scientific, cat. PHG0311). The 485176-168-R4-J1-PDC line was cultured in Panc media, which includes all 6C/Colon 1B media components plus 100 ng/mL human FGF-10 (Thermo Fisher Scientific, cat. 100-26), 500 nM SB-431542 (Selleckchem, cat. S1067), and gastrin (Tocris, cat. 3006).
[…]
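Note: spheroids exposed to drugs for 7 days before viability reading.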

Row | Structure (SMILES) | viability, T/C (compound 0.0316 µM) | viability, T/C (compound 0.1 µM) | viability, T/C (compound 0.316 µM) | viability, T/C (compound 1 µM) | viability, T/C (compound 3.16 µM) | viability, T/C (compound 10 µM) | IC50 (curve of compound) | viability, T/C (compound 0.000999 µM) | viability, T/C (compound 0.00316 µM) | viability, T/C (compound 0.00999 µM) | viability, T/C (compound 0.0999 µM) | IC50 (compound alone, run of 04/22/2024) [nM]
1 | CC1COCCN1c1cc(C2(O)CC3CCC(C2)O3)c2cnn(-c3ccn[nH]3)c2n1 (stereo unspecified) | 68.2% and 80.2% and 69% | 66.9% and 48.7% and 53.4% | 39.5% and 49.8% and 44.3% | 32.1% and 33.8% and 33.2% | 21.9% and 25.7% and 22.9% | 12.9% and 16.6% and 12.2% | 226 nM and 195 nM and 173 nM | – | – | – | – | –
2 | CC1COCCN1c1cc(C2(S(C)(=N)=O)CC2)nc(-c2ccnc3[nH]ccc23)n1 (stereo unspecified) | 95.1% and 98% and 118% | 110% and 95.7% and 101% | 84.8% and 84.3% and 101% | 83.6% and 72.9% and 77.3% | 73.7% and 63.8% and 58% | 52.1% and 46.3% and 51.5% | > 10000 nM and 7960 nM | – | – | – | – | –
3 | CCCS(=O)(=O)Nc1ccc(F)c(C(=O)c2c[nH]c3ncc(-c4ccc(Cl)cc4)cc23)c1F | 105% and 100% and 95.2% | 81.5% and 87% and 92.4% | 51.8% and 93% and 109% | 43% and 88.8% and 110% | 40% and 64.2% and 82.7% | 34.2% and 30.7% and 36.3% | – | – | – | – | – | –
4 | CC[C@@]1(O)C(=O)OCc2c1cc1n(c2=O)Cc2cc3c(CN(C)C)c(O)ccc3nc2-1 | 78.6% and 59.5% and 63.7% | – | 52.4% and 46.4% and 50.7% | – | – | – | > 316 nM and 93.3 nM | 102% and 100% and 105% | 102% and 88.7% and 106% | 87.2% and 87.7% and 96.7% | 57.2% and 51.5% and 58.3% | –
5 | CCc1c2c(nc3ccc(O)cc13)-c1cc3c(c(=O)n1C2)COC(=O)[C@]3(O)CC | 34.9% and 28.8% and 33.9% | – | 6.84% and 7.73% and 9.09% | – | – | – | 10.5 nM and 6.82 nM and 6.81 nM | 62% and 58.6% and 64.2% | 58% and 49.7% and 56.6% | 51.5% and 50.8% and 46.9% | 19.2% and 15.7% and 20.2% | –
6 | CN(C)c1ccc(Nc2c3ccc(NC(=O)CCN4CCCC4)cc3nc3cc(NC(=O)CCN4CCCC4)ccc23)cc1 | 102% [middle of 12 runs] | 105% [middle of 12 runs] | 104% [middle of 12 runs] | 105% [middle of 12 runs] | 95.9% [middle of 12 runs] | 67% [middle of 12 runs] | – | – | – | – | – | > 10000
